Results as given in patent publication US9498483B2, “2,3,5-trisubstituted thiophene compounds and uses thereof” (priority 2010, dated 2016).

Legend:
[1] = target: T1, HCV polymerase (Hepatitis C virus genotype 1b, UniProt Q9WMX2); assay: Polymerase assay of Biological Example 1 (IC50 values of Table 3); type: biochemical; conditions: IC50 values of Table 3, polymerase assay of Biological Example 1; read-out: NS5B-enzyme3
T1 construct: (His)6 (C); made in house; host or cells: XL-1 cells (E. coli, by own knowledge)

[2] = test system: HCV replicon I389luc-ubi-neo/NS3-3′/ET in ET (Huh-lucubineo-ET) cells; assay: Replicon assay (Biological Example 2), luciferase readout; type: cell-based; conditions: Hepatitis C virus
In short: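 EC50 values come from Hill fits of % inhibition of replicon-driven firefly luciferase, relative to no-compound wells. Compounds were serially diluted (10 points, 3-fold, 0.1 nM–50 μM final, 0.5% DMSO) onto ET replicon cells and read after 48 h.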

[3] = ET cells, luciferase activity 48 hours after compound

SMILES | IC50 [1] [nM] | IC50 [2, 3] [nM] | IC50 ([2]; between 100 nM and 5.0 uM) [nM]
CC1(C)OC[C@@H](C2CCCCC2)N(c2cc(-c3ccc(Cl)cc3)sc2C(=O)O)C1=O [Compound 315, 5-(4-Chloro-phenyl)-3-((R)-5-cyclohexyl-2,2-dimethyl-3-oxo-morpholin-4-yl)-thiophene-2-carboxylic acid] | 6 | ≤ 100 | –
CC(O)C1CCC(C2CCCCC2)N(c2cc(C#CC(C)(C)C)sc2C(=O)O)C1=O (stereo not drawn) [Compound 316, 3-[6-Cyclohexyl-3-(1-hydroxy-ethyl)-2-oxo-piperidin-1-yl]-5-(3,3-dimethyl-but-1-ynyl)-thiophene-2-carboxylic acid] | 3 | ≤ 100 | –
Cc1ccc(-c2cc(N3C(=O)C(O)CCC3C3CCCCC3)c(C(=O)O)s2)cc1 (stereo not drawn) [Compound 317, 3-(6-Cyclohexyl-3-hydroxy-2-oxo-piperidin-1-yl)-5-p-tolyl-thiophene-2-carboxylic acid] | 24.1 | – | 100 to 5000
CC(C)(C)C#Cc1cc(N2C(=O)[C@](C)(CCC(C)(C)O)OC[C@H]2C2CCCCC2)c(C(=O)O)s1 [Compound 318, 3-[(2S,5R)-5-Cyclohexyl-2-(3-hydroxy-3-methyl-butyl)-2-methyl-3-oxo-morpholin-4-yl]-5-(3,3-dimethyl-but-1-ynyl)-thiophene-2-carboxylic acid] | 14 | ≤ 100 | –
CC(C)(C)C#Cc1cc(N2C(=O)[C@@](C)(CCC(C)(C)O)OC[C@H]2C2CCCCC2)c(C(=O)O)s1 [Compound 319, 3-[(2R,5R)-5-Cyclohexyl-2-(3-hydroxy-3-methyl-butyl)-2-methyl-3-oxo-morpholin-4-yl]-5-(3,3-dimethyl-but-1-ynyl)-thiophene-2-carboxylic acid] | 4 | ≤ 100 | –
C[C@@H](O)CC[C@]1(C)OC[C@@H](C2CCCCC2)N(c2cc(C#CC(C)(C)C)sc2C(=O)O)C1=O [Compound 320, 3-[(2S,5R)-5-Cyclohexyl-2-((R)-3-hydroxy-butyl)-2-methyl-3-oxo-morpholin-4-yl]-5-(3,3-dimethyl-but-1-ynyl)-thiophene-2-carboxylic acid] | 6 | ≤ 100 | –
C[C@@H](O)CC[C@@]1(C)OC[C@@H](C2CCCCC2)N(c2cc(C#CC(C)(C)C)sc2C(=O)O)C1=O [Compound 321, 3-[(2R,5R)-5-Cyclohexyl-2-((R)-3-hydroxy-butyl)-2-methyl-3-oxo-morpholin-4-yl]-5-(3,3-dimethyl-but-1-ynyl)-thiophene-2-carboxylic acid] | 2 | ≤ 100 | –
CC(C)(C)C#Cc1cc(N2C(=O)[C@@H](O)CC[C@H]2C2CCCCC2)c(C(=O)O)s1 [Compound 322] | 6 | ≤ 100 | –
CC(C)(C)C#Cc1cc(N2C(=O)[C@@](C)(CCO)OC[C@H]2C2CCCCC2)c(C(=O)O)s1 [Compound 323, 3-[(2R,5R)-5-Cyclohexyl-2-(2-hydroxy-ethyl)-2-methyl-3-oxo-morpholin-4-yl]-5-(3,3-dimethyl-but-1-ynyl)-thiophene-2-carboxylic acid] | 3 | ≤ 100 | –
Cc1ccc(-c2cc(N3C(=O)C(C)(O)CCC3C3CCCCC3)c(C(=O)O)s2)cc1 (stereo not drawn) [Compound 324, 3-(6-Cyclohexyl-3-hydroxy-3-methyl-2-oxo-piperidin-1-yl)-5-p-tolyl-thiophene-2-carboxylic acid] | 85 | – | 100 to 5000
CC(C)(C)C#Cc1cc(N2C(=O)C3(CCOCC3)OC[C@H]2C2CCCCC2)c(C(=O)O)s1 [Compound 325, 3-((R)-3-Cyclohexyl-5-oxo-1,9-dioxa-4-aza-spiro[5.5]undec-4-yl)-5-(3,3-dimethyl-but-1-ynyl)-thiophene-2-carboxylic acid] | 6 | ≤ 100 | –
CC(C)(C)C#Cc1cc(N2C(=O)[C@](C)(CC(O)CO)OC[C@H]2C2CCCCC2)c(C(=O)O)s1 (stereo partly drawn) [Compound 327, 3-[(2S,5R)-5-Cyclohexyl-2-(2,3-dihydroxy-propyl)-2-methyl-3-oxo-morpholin-4-yl]-5-(3,3-dimethyl-but-1-ynyl)-thiophene-2-carboxylic acid] | 4 | ≤ 100 | –
